Where a name gives a salt, the structure may show the parent alone. Read-outs that look alike come from different tables or passages of the source.
Columns and labels:
mouse TAAR1 = mouse TAAR1 (Mus musculus (Mouse), UniProt Q923Y8); assay: Radioligand binding assay on mouse TAAR1
Procedure: (§1) For the construction of expression plasmids the coding sequences of human, rat and mouse TAAR1 were amplified from genomic DNA essentially as described by Lindemann et al.. The Expand High Fidelity PCR System (Roche Diagnostics) was used with 1.5 mM Mg^2+ and purified PCR products were cloned into pCR2.1-TOPO cloning vector (Invitrogen) following the instructions of the manufacturer. PCR products were subcloned into the pIRESneo2 vector (BD Clontech, Palo Alto, Calif.), and expression vectors were sequence verified before introduction in cell lines.
(§2) HEK293 cells (ATCC #CRL-1573) were cultured essentially as described by Lindemann et al. (2005). For the generation of stably transfected cell lines HEK293 cells were transfected with the pIRESneo2 expression plasmids containing the TAAR coding sequences (described above) with Lipofectamine 2000 (Invitrogen) according to the instructions of the manufacturer, and 24 hrs post transfection the culture medium was supplemented with 1 mg/ml G418 (Sigma, Buchs, Switzerland). After a culture period of about 10 d clones were isolated, expanded and tested for responsiveness to trace amines (all compounds purchased from Sigma) with the cAMP Biotrak Enzyme immunoassay (EIA) System (Amersham) following the non-acetylation EIA procedure provided by the manufacturer.
Radioligand Binding Assay on Mouse TAAR1
(§3) Membrane Preparation and Radioligand Binding.
(§4) HEK-293 cells stably expressing mouse TAAR1 were maintained at 37° C. and 5% CO2 in DMEM high glucose medium, containing fetal calf serum (10%, heat inactivated for 30 min at 56° C.), penicillin/streptomycin (1%), and 375 μg/ml geneticin (Gibco). Cells were released from culture flasks using trypsin/EDTA, harvested, washed twice with ice-cold PBS (without Ca^2+ and Mg^2+), pelleted at 1,000 rpm for 5 min at 4° C., frozen and stored at −80° C. Frozen pellets were suspended in 20 ml HEPES-NaOH (20 mM, pH 7.4) containing 10 mM EDTA and homogenized with a Polytron (PT 6000, Kinematica) at 14,000 rpm for 20 s. The homogenate was centrifuged at 48,000×g for 30 min at 4° C. Subsequently, the supernatant was removed and discarded, and the pellet resuspended in 20 ml HEPES-NaOH (20 mM, pH 7.4) containing 0.1 mM EDTA using the Polytron (20 s at 14,000 rpm). This procedure was repeated and the final pellet resuspended in HEPES-NaOH containing 0.1 mM EDTA and homogenized using the Polytron. Typically, aliquots of 2 ml membrane portions were stored at −80° C. With each new membrane batch the dissociation constant (Kd) was determined via a saturation curve. […] Nonspecific binding was defined as the amount of ^3[H]—(S)-4-[(ethyl-phenyl-amino)-methyl]-4,5-dihydro-oxazol-2-ylamine bound in the presence of 10 μM unlabeled ligand. All compounds were tested at a broad range of concentrations (10 pM to 10 μM) in duplicates. […] The 96 deep well plates were incubated for 1 hr at 4° C. Incubations were terminated by rapid filtration through Unifilter-96 plates (Packard Instrument Company) and glass filters GF/C (Perkin Elmer) presoaked for 1 hr in polyethylenimine (0.3%) and washed 3 times with 1 ml of cold binding buffer. After addition of 45 μl of Microscint 40 (PerkinElmer) the Unifilter-96 plate was sealed and after 1 hr the ratioactivity counted using a TopCount Microplate Scintillation Counter (Packard Instrument Company).

rat TAAR1 = rat TAAR1 (Rattus norvegicus (Rat), UniProt Q923Y9); assay: Radioligand binding assay on rat TAAR1
Sequence of rat TAAR1 (Q923Y9 whole entry): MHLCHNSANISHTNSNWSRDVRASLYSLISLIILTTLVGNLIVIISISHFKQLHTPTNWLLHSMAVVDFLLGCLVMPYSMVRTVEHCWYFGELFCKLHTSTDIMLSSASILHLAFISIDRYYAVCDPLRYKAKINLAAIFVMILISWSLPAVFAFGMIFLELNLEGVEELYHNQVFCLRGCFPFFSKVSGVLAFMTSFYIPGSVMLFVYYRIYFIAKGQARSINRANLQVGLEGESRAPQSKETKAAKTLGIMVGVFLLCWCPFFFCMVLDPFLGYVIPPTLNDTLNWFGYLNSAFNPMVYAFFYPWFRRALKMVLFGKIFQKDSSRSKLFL
Procedure: as §1, §2
Radioligand Binding Assay on Rat TAAR1
as §3
as §4, with “rat” for “mouse”

[1] = mouse TAAR1, HEK-293 membranes, first value of cell mouse/rat, read-out: Ki (μM) mouse
[2] = rat TAAR1, HEK-293 membranes, second value of cell mouse/rat, read-out: Ki (μM) rat

Sequence of mouse TAAR1 (Q923Y8 whole entry): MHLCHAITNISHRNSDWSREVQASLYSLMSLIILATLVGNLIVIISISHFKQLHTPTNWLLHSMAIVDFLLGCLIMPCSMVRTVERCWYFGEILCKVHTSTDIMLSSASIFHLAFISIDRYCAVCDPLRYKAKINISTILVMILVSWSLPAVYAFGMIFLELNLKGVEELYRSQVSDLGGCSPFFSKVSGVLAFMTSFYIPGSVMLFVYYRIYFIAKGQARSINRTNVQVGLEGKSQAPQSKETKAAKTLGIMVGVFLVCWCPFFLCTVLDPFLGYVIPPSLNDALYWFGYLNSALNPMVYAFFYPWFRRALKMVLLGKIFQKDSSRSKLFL

Compound | Ki (mouse TAAR1; [1]) [µM] | Ki (rat TAAR1; [2]) [µM] | Ki (rat TAAR1; read-out: Ki (μM) rat) [µM] | Ki (mouse TAAR1) [µM] | Ki (rat TAAR1) [µM]
CCCCc1ccc(NC(=O)Nc2ccc(C3CCNC3)cc2)c(C)c1 (racemic) [Example 1, (RS)-1-(4-Butyl-2-methyl-phenyl)-3-(4-pyrrolidin-3-yl-phenyl)-urea; hydrochloride] | 0.0056 | 0.0072 | – | – | –
O=C(Nc1ccc(C2CCNC2)cc1)Nc1ccc(Cl)c(Cl)c1 (racemic) [Example 3, (RS)-1-(3,4-Dichloro-phenyl)-3-(4-pyrrolidin-3-yl-phenyl)-urea hydrochloride] | 0.0013 | 0.0016 | – | – | –
O=C(Nc1ccc(Cl)cc1)Nc1ccc(C2CCNC2)cc1 (racemic) [Example 5, (RS)-1-(4-Chloro-phenyl)-3-(4-pyrrolidin-3-yl-phenyl)-urea hydrochloride] | 0.0015 | 0.0027 | – | – | –
O=C(Nc1ccccc1)Nc1ccc(C2CCNC2)cc1 (racemic) [Example 6, (RS)-1-Phenyl-3-(4-pyrrolidin-3-yl-phenyl)-urea hydrochloride] | 0.0032 | – | 0.0295 | – | –
O=C(Nc1ccc(C2CCNC2)cc1)Nc1ccc(Cl)cc1Cl (racemic) [Example 7, (RS)-1-(2,4-Dichloro-phenyl)-3-(4-pyrrolidin-3-yl-phenyl)-urea hydrochloride] | 0.0028 | 0.0036 | – | – | –
O=C(Nc1ccc(C2CCNC2)cc1)Nc1cccc(Cl)c1 (racemic) [Example 8, (RS)-1-(3-Chloro-phenyl)-3-(4-pyrrolidin-3-yl-phenyl)-urea hydrochloride] | 0.0015 | 0.0044 | – | – | –
O=C(Nc1ccc(C2CCNC2)cc1)Oc1ccccc1 (racemic) [Example 11, (RS)-(4-Pyrrolidin-3-yl-phenyl)-carbamic acid phenyl ester hydrochloride] | – | – | – | 0.0065 | 0.0315
O=C(Nc1ccc(C2CCNC2)cc1)c1ccccc1 (racemic) [Example 13, (RS)—N-(4-Pyrrolidin-3-yl-phenyl)-benzamide hydrochloride] | 0.008 | 0.0995 | – | – | –
O=C(Nc1ccc(C2CCNC2)cc1)Oc1ccc(F)cc1 (racemic) [Example 15, (RS)-(4-Pyrrolidin-3-yl-phenyl)-carbamic acid 4-fluoro-phenyl ester hydrochloride] | – | – | – | 0.0021 | 0.0081
O=C(Nc1ccc(C2CCNC2)cc1)c1ccc(Cl)cc1 (racemic) [Example 16, (RS)-4-Chloro-N-(4-pyrrolidin-3-yl-phenyl)-benzamide hydrochloride] | 0.0007 | 0.0043 | – | – | –
O=C(Cc1ccc(Cl)cc1)Nc1ccc(C2CCNC2)cc1 (racemic) [Example 17, (RS)-2-(4-Chloro-phenyl)-N-(4-pyrrolidin-3-yl-phenyl)-acetamide hydrochloride] | 0.0083 | 0.0363 | – | – | –
O=C(Nc1ccc(C2CCNC2)cc1)c1ccc(C(F)(F)F)cc1 (racemic) [Example 18, (RS)—N-(4-Pyrrolidin-3-yl-phenyl)-4-trifluoromethyl-benzamide hydrochloride] | 0.0011 | 0.0036 | – | – | –
O=C(Nc1ccc(C2CCNC2)cc1)c1ccc(Cl)cc1Cl (racemic) [Example 19, (RS)-2,4-Dichloro-N-(4-pyrrolidin-3-yl-phenyl)-benzamide hydrochloride] | 0.0035 | 0.0189 | – | – | –
O=C(Nc1ccc(C2CCNC2)cc1)c1cccc(Cl)c1 (racemic) [Example 20, (RS)-3-Chloro-N-(4-pyrrolidin-3-yl-phenyl)-benzamide hydrochloride] | 0.0005 | 0.0077 | – | – | –
CN(C(=O)Oc1ccccc1)c1ccc(C2CCNC2)cc1 (racemic) [Example 22, (RS)-Methyl-(4-pyrrolidin-3-yl-phenyl)-carbamic acid phenyl ester] | – | – | – | 0.526 | 2.37
O=C(Nc1ccc(C2CCNC2)cc1)Oc1ccc(Cl)cc1 (racemic) [Example 23, (RS)-(4-Pyrrolidin-3-yl-phenyl)-carbamic acid 4-chloro-phenyl ester hydrochloride] | – | – | – | 0.0022 | 0.0025
O=C(Nc1ccc(C2CCNC2)cc1)Nc1ccc(Cl)nc1 (racemic) [Example 26, (RS)-1-(6-Chloro-pyridin-3-yl)-3-(4-pyrrolidin-3-yl-phenyl)-urea hydrochloride] | 0.0112 | 0.0279 | – | – | –
O=C(Nc1ccc(C2CCNC2)cc1)Nc1ccc(C(F)(F)F)cc1 (racemic) [Example 27, (RS)-1-(4-Pyrrolidin-3-yl-phenyl)-3-(4-trifluoromethyl-phenyl)-urea hydrochloride] | 0.0013 | 0.0015 | – | – | –
CN1CCC(c2ccc(NC(=O)c3ccc(Cl)cc3)cc2)C1 (racemic) [Example 32, (RS)-4-Chloro-N-[4-(1-methyl-pyrrolidin-3-yl)-phenyl]-benzamide] | 0.0005 | 0.0858 | – | – | –
O=C(Nc1ccc(C2CCN(Cc3ccccc3)C2)cc1)c1ccc(Cl)cc1 (racemic) [Example 34, (RS)—N-[4-(1-Benzyl-pyrrolidin-3-yl)-phenyl]-4-chloro-benzamide] | 0.0269 | 0.214 | – | – | –
CCC(C(=O)Nc1ccc(C2CCNC2)cc1)c1ccccc1 (racemic) [Example 38, (RS)-2-Phenyl-N—((RS)-4-pyrrolidin-3-yl-phenyl)-butyramide] | 0.0407 | 0.0606 | – | – | –
O=C(Nc1ccc(OC2CCNC2)cc1)c1ccc(Cl)cc1 (racemic) [Example 39, (RS)-4-Chloro-N-[4-(pyrrolidin-3-yloxy)-phenyl]-benzamide hydrochloride] | 0.0007 | 0.0139 | – | – | –
O=C(Nc1ccc(C2CCNC2)cc1)c1ccc(Cl)cn1 (racemic) [Example 42, (RS)-5-Chloro-pyridine-2-carboxylic acid (4-pyrrolidin-3-yl-phenyl)-amide hydrochloride] | 0.0033 | 0.0354 | – | – | –
O=C(Nc1ccc(C2CCNC2)cc1)c1ccc(Cl)nc1 (racemic) [Example 43, (RS)-6-Chloro-pyridine-3-carboxylic acid (4-pyrrolidin-3-yl-phenyl)-amide hydrochloride] | 0.0041 | 0.0242 | – | – | –
O=C(Nc1ccc(C2CCNC2)cc1)Nc1ccc(Cl)cn1 (racemic) [Example 44, (RS)-1-(5-Chloro-pyridin-2-yl)-3-(4-pyrrolidin-3-yl-phenyl)-urea hydrochloride] | 0.0013 | 0.0022 | – | – | –

Source: patent US9452980B2, “Substituted benzamides” (Hoffmann-La Roche Inc., priority 2009, dated 2016)
